Results published in patent US5364966A, “Amide derivatives, their production processes and their compositions for the control of insect pests” (Sumitomo Chemical Company, Limited, priority 1991, dated 1994).

Tests used:
[1] = test system: brown rice planthopper (Nilaparvata lugens); assay: Metamorphosis inhibitory activity against brown rice planthopper nymphs; type: in vivo; conditions: sprayed rice plants, 3rd instar nymphs, after 10 days
Procedure: Metamorphosis inhibitory activity against brown rice planthopper nymphs
An emulsifiable concentrate prepared according to Formulation Example 1 was diluted with water to make a predetermined concentration. The dilution was sprayed onto rice plants cultivated in polyethylene cups at a rate of 20 ml/2 pots on a turning table. After air-drying, the plants were infested with about ten 3rd instar nymphs of brown rice planthopper (Nilaparvata lugens). After 10 days, the number of normal adults was counted to obtain an emergence inhibitory rate.

[2] = test system: cotton aphids (Aphis gossypil); assay: Reproduction inhibitory activity against cotton aphids; type: in vivo; conditions: 10 ppm; sprayed potted cotton plants infested with 1st instar nymphs, one week after spraying
Procedure: Reproduction inhibitory activity against cotton aphids
An emulsifiable concentrate prepared according to Formulation Example 1 was diluted with water to make a predetermined concentration. The dilution was sprayed onto potted cotton plants (in a stage of 8-9 days after sowing) infested with 1st instar nymphs of cotton aphids (Aphis gossypil) at a rate of 30 ml/2 pots on a turning table. Before spraying and one week after spraying, the humber of nymphs and aduts was counted, and a reproduction inhibitory index was expressed by the following equation: [formula] wherein the judgement of activity is based on the following standard: A: less than 1 (excellent effect)

[3] = Nilaparvata lugens, 240 h, 5 ppm, read-out: Inhibitory rate (emergence inhibitory rate)
[4] = Nilaparvata lugens, 240 h, 0.05 ppm, read-out: Inhibitory rate (emergence inhibitory rate)

Compound | inhibition at 5 ppm [1, 3] [%] | inhibition at 0.05 ppm [1, 4] [%] | also measured
O=C(NCCOc1ccc(Oc2ccccc2)cc1)C1CC1 [A, reference compound] | 0 |  | 
O=C(NCCOc1ccc(Oc2cc(F)cc(F)c2)cc1Cl)C1CC1 [Compound No. 1, N-{2-[2-Chloro-4-(3,5-difluorophenoxy)phenoxy]ethyl}-cyclopropane carboxyamide] | 100 | 100 | reproduction inhibitory index [2]: A (less than 1 (excellent effect))
S=C(NCCOc1ccc(Cc2ccccc2)cc1Cl)C1CC1 [Compound No. 3, N-[2-(4-Benzyl-2-chlorophenoxy)ethyl]-cyclopropane thiocarboxyamide] | 100 | 100 | 
CC(C)COCc1ccc(OCCNC(=O)C2CC2)c(Cl)c1 [Compound No. 10, N-{2-[2-Chloro-4-(2-methylpropoxymethyl)phenoxy]ethyl}-cyclopropane carboxyamide] | 100 | 100 | 
CCC(C)Oc1ccc(OCCNC(=O)C2CC2)c(Cl)c1 (stereo not drawn) [Compound No. 14, N-{2-[2-Chloro-4-(1-methylpropoxy)phenoxy]ethyl}-cyclopropane carboxyamide] | 100 | 100 | 
Fc1cc(F)cc(Oc2ccc(OCCNC(=S)C3CC3)c(Cl)c2)c1 [compound 4, N-{2-[2-Chloro-4-(3,5-difluorophenoxy)phenoxy]ethyl}-cyclopropane thiocarboxyamide] | 100 | 100 | 
O=C(NCCOc1ccc(Oc2cccc(F)c2)cc1Cl)C1CC1 [compound 5, N-{2-[2-Chloro-4-(3-fluorophenoxy)phenoxy]ethyl}-cyclopropane carboxyamide] | 100 | 100 | 
O=C(NCCOc1ccc(Oc2cccc(Cl)c2)cc1Cl)C1CC1 [compound 6, N-{2-[2-Chloro-4-(3-chlorophenoxy)phenoxy]ethyl}-cyclopropane carboxyamide] | 100 | 100 | 
O=C(NCCOc1ccc(Oc2ccc(F)cc2F)cc1Cl)C1CC1 [compound 7, N-{2-[2-Chloro-4-(2,4-difluorophenoxy)phenoxy]ethyl}-cyclopropane carboxyamide] | 100 |  | 
O=C(NCCOc1cc(Oc2ccccc2)ccc1Cl)C1CC1 [compound 8, N-[2-(2-Chloro-5-phenoxyphenoxy)ethyl]-cyclopropane carboxyamide] | 100 | 100 | 
CCC(C)Oc1ccc(OCCNC(=S)C2CC2)c(Cl)c1 (stereo not drawn) [compound 11, N-{2-[2-Chloro-4-(1-methylpropoxy)phenoxy]ethyl}-cyclopropane thiocarboxyamide] |  |  | Inhibitory rate (emergence inhibitory rate) ([1]; 0.05 ppm): 100%; Inhibitory rate (emergence inhibitory rate) ([1]; 5 ppm): 100%
CCC(CC)Cc1ccc(OCCNC(=O)C2CC2)c(Cl)c1 [compound 12, N-{2-[2-Chloro-4-(2-ethylbutyl)phenoxy]ethyl}-cyclopropane carboxyamide] | 100 | 100 | 
O=C(NCCOc1ccc(Cc2ccccc2)cc1Cl)C1CC1 [compound 13, N-[2-(4-Benzyl-2-chlorophenoxy)ethyl]-cyclopropane carboxyamide] | 100 | 100 | 
O=C(NCCOc1ccc(Oc2ccccc2)cc1Cl)C1CC1 [compound 15, N-[2-(2-Chloro-4-phenoxyphenoxy)ethyl]-cyclopropane carboxyamide] | 100 |  | 
S=C(NCCOc1ccc(Oc2cccc(Cl)c2)cc1Cl)C1CC1 [compound 16, N-{2-[2-Chloro-4-(3-chlorophenoxy)phenoxy]ethyl}-cyclopropane thiocarboxyamide] |  |  | inhibition at 0.5 ppm ([1]; Nilaparvata lugens, 240 h, 0.5 ppm, read-out: Inhibitory rate (emergence inhibitory rate)): 100%
